Source: article PMC12019328, “Discovery of an ApoE4-targeted small-molecule SirT1 enhancer for the treatment of Alzheimer’s disease” (Scientific Reports, 2025)
“Also recorded” adds a separate entry of the source.

Columns and labels:
[1] = system: SirT1 mRNA in N2a-E4 cells; test: SirT1 mRNA in N2a-E4 cells (qRT-PCR); type: cell-based, murine; settings: 5 µM, 24 h, normalized to GAPDH and DMSO
Method: Relative SirT1 mRNA and protein enhancement by racemate DDL-214 and enantiomers DDL-218 and − 219 was determined in murine neuroblastoma cells stably transfected with ApoE4 (N2a-E4)[25]. All test compounds in DMSO were prepared at 2x the final concentration in DMEM supplemented with 10% fetal bovine serum (FBS) and 1% pen-strep (PS) and 50 µL of each loaded into individual wells of a 96-well plate. Previously cultured N2a-E4 were then trypsinized, harvested, centrifuged, and counted; then 50 µL of cell suspension adjusted to 400 cells/µL was added to each well. The plate was then incubated at 37 °C, 5% CO2 for 48 h. Cells were treated with DDL-214, DDL-218, or DDL-219 at 5 µM final then incubated for 24 h. […]
(§1) Total RNA was isolated from cells or brain tissue (Qiagen RNEasy kit). Total RNA (0.5–1.0 µg) mRNA was then converted to cDNA (SuperScript™ III First-Strand Synthesis SuperMix kit; Thermo Fisher), and gene mRNA levels were measured using a gene-specific qRT-PCR Taqman assays (Thermo Fisher). Gene mRNA levels were normalized to GAPDH mRNA levels measured either in the same cDNA sample or in the same qPCR reaction using multiplexing of gene-of-interest/VIC and GAPDH/FAM, normalized by the delta-delta-Ct method.

[2] = Observable adverse effects in 56-day oral treatment of AD model mice; type: in vivo; settings: 56-day oral treatment of ApoE4-expressing AD model mice
Method: (§2) The active (-) enantiomer, DDL-218, underwent efficacy testing in ApoE4-TR:5xFAD mice[27] that were 6-7.5 months old at the start of treatment. ApoE4-TR:5xFAD male and female mice received either 20 mg/Kg DDL-218 BID (~ 8- to10-hour interval; total daily dose of 40 mkd) on weekdays and a single 40 mg/Kg dose on weekends (n = 12) or vehicle-only (n = 11); 8 C57BL/6 mice received vehicle-only as behavioral controls. Dosing was by the oral route and by oral feeding using a pipette as previously described, not gavage, as it is safer for repeated oral dosing than gavage. The dose of 20 mg/kg BID (40 mkd) was selected based on findings from PK analysis and was the highest feasible in the formulation used for oral feeding (compound is first solubilized in water, then mixed strawberry syrup diluted in water, for a final vehicle that is 25% syrup and 75% water). The final concentration of DDL-218 was chosen to deliver 20 mg/Kg in a volume of 10–20 µL (adjusted to the weight of each mouse). Mice were treated for 56 days (8 weeks); in week 7, mice underwent Barnes maze testing[29] as described below.

[3] = system: PRMT5 mRNA in Kelly cells; test: PRMT5 mRNA in Kelly neuroblastoma cells; type: cell-based, human; settings: 5 µM, 24 h, vs DMSO
Method: Human neuroblastoma ‘Kelly’ cells (genotype APOE3/APOE4) were plated in 96-well plates at 50K cells per well and were grown overnight in RPMI 1640 supplemented with 2 mM Glutamine, 10% FBS and 1% Pen-Strep. Cells were treated with 5 µM DDL-214, -218, or -219; or DMSO vehicle (n = 8 per compound). Twenty-four hours later, medium was removed, cells washed and lysed as described above for N2a-E4 cells.
as §1

SirT1 promoter = test: ChIP analysis of SirT1 promoter occupancy in brain tissue of ApoE4-TR:5xFAD mice; type: in vivo; settings: vs Veh
Method: 17-371) following manufacturer's instructions. Brain was frozen to -80C, then powdered on dry
ice and split for either RNA analysis or for the ChIP assay, approximately ~100mg powderized
tissue was fixed in formaldehyde. For cultured cells in vitro, cells were fixed in each well and
harvested by scraping. Samples were sonicated to break chromatin into 200-1000bp fragments
(according to previously optimized conditions), using a Epishear programmable sonicator (Active
Motif), and aliquots were subjected to immunoprecipitation with antibodies against either apoE4
(Novus), RNA Polymerase (supplied in the Ez-ChIP kit), or mouse IgG (isotype matched).
Immunoprecipitated chromatin was subjected to conditions that reversed the cross-links, and
DNA was purified. The immunoprecipitated DNA was measured for the level of immuno-captured
SirT1 gene promoter sequence using qPCR with PCR primers that bind flanking the SirT1 CLEAR
sequence. PCR produced an amplicon of 125bp with the CLEAR site near one end, the CLEAR
sequence is bold underlined in the following 125bp PCR amplicon:
PCR amplification Ct values for apoE4 and RNAP were normalized to the levels obtained for
IgG and further normalized to the level of input DNA. This level of immuno-captured DNA indicates
the level of apoE4 or RNAP occupancy of CLEAR site region of the SirT1 gene promoter.
Figure S7. SirT1 promoter binding by RNA polymerase and ApoE4. […]

SirT1 protein = SirT1 protein levels in hippocampi of ApoE4-TR:5xFAD mice; type: in vivo; settings: 56 days, vs vehicle, not statistically significant
Method: as §2
On Day 56, mice were euthanized 2 h after the a.m. dose by pentobarbital over-anesthesia and cardiac puncture for the collection of blood in EDTA tubes on ice for the isolation of plasma by centrifugation at 3,000 x g for 10 min at 4 °C. Mice were perfused with saline at 5 ml/min. […]

CC(N)C(=O)OC(C)(C)Cc1ccncc1 (stereo not drawn) [DDL-218]
SirT1 mRNA [1]: greatest increase; also recorded: significantly increased SirT1 mRNA | observable adverse effects [2]: not associated with any observable adverse effects | PRMT5 expression (mRNA) [3]: significantly increases PRMT5 expression | ApoE4 binding to the SirT1 promoter (SirT1 promoter): lower, but the effect was not significant | RNAP binding to the SirT1 promoter (SirT1 promoter): significantly increased | increase of mean SirT1 protein levels in hippocampi (SirT1 protein): ~ 20%
